Assays:
[1] = biological target: CYP2E1 (Homo sapiens, UniProt P05181); assay: CYP2E1 inhibition in cryopreserved human hepatocyte suspensions (chlorzoxazone probe)
Protocol: (§1) Preincubations were performed in 50 μL of Williams’ Medium E with 2 mM salicylamide. The salicylamide was included to reduce possible phase II conjugation to the precursor phase I metabolites. […] Human hepatocytes (pooled from 5 donors) were thawed and prepared according to the vendor’s protocol. […] Incubations were carried out at 37°C with 5% CO2. The incubation time was 45 min for phenacetin, diclofenac, dextromethorphan, midazolam, bupropion, chlorzoxazone, and testosterone and 90 min for paclitaxel and (S)-mephenytoin. The reactions were stopped by adding 200 μL of ice-cold acetonitrile (can) with tolbutamide (100 ng/mL) as the internal standard to 100 μL of hepatocyte suspension (1:2, v/v). The 96-well plate was then vortexed at 1,700 rpm for 3 min and centrifuged at 3,500 rpm for 10 min at 20°C. The supernatants were analyzed using liquid chromatography-tandem MS (LC-MS/MS).

[2] = biological target: T1, CYP2B6 (Homo sapiens, UniProt P20813); assay: biochemical
T1 sequence (P20813 1-491): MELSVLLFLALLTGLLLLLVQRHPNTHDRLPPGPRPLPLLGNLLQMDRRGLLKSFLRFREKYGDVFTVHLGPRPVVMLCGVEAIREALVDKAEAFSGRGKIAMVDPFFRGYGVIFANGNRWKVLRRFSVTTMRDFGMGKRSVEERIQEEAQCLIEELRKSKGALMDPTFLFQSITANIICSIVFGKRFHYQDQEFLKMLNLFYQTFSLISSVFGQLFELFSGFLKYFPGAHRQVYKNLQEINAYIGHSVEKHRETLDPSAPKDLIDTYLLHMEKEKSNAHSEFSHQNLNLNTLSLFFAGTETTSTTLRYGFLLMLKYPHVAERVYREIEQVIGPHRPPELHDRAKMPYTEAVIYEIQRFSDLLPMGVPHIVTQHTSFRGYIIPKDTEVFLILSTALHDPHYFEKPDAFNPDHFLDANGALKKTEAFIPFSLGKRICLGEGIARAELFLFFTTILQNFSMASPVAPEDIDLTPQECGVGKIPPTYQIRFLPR
Protocol: as §1

[3] = test system: T2, P-gp; assay: P-gp inhibition study in MDCK-MDR1 cells; type: in vitro ADME; conditions: human, probe [3H]-quinidine, 100 nM
T2 construct: host or cells: MDCK-MDR1 (MDCK cells stably transfected with MDR1)
Protocol: MDCK-MDR1 cells and MDCK-II cells transfected with BCRP were washed with HBSS at 37°C. Wells of the culture plate served as the apical compartment, and 150 μL of HBSS solutions was added to the apical wells. These solutions also contain one of the following: vehicle (for probe substrate controls), 100 μM test article (for test article inhibition experiments), 1 μM Ko143 (for BCRP inhibition), or 3 μM elacridar (for P-gp inhibition). A 96-well receiver tray was prepared with each well containing 300 μL of buffer solution corresponding to the apical wells. Receiver tray wells served as the basal compartment. The plate and receiver tray were assembled and incubated at 37°C for 30 min. The solution was then aspirated from the apical compartment and the 96-well plate was removed from the receiver tray. […] These samples were counted on a 1450 Microbeta (PerkinElmer). For samples containing test articles, samples were quantitated using LC-MS.
Net basal (B) to apical (A) flux (B→A) of the substrate transport by BCRP and P-gp was calculated by subtracting (A→B) flux from (B→A) flux as: netB→Aflux(pmol/min/cm^2)=(B→A)flux-(A→B)flux.
Percent inhibition was calculated by dividing the net flux (B→A) in the presence of the test article or the reference inhibitor by the net flux (B→A) in the absence of the inhibitor as: %inhibition=100−(100×netfluxwithinhibitor/(meannetflux)withoutinhibitor).

CYP2E1, sequence (P05181 whole entry): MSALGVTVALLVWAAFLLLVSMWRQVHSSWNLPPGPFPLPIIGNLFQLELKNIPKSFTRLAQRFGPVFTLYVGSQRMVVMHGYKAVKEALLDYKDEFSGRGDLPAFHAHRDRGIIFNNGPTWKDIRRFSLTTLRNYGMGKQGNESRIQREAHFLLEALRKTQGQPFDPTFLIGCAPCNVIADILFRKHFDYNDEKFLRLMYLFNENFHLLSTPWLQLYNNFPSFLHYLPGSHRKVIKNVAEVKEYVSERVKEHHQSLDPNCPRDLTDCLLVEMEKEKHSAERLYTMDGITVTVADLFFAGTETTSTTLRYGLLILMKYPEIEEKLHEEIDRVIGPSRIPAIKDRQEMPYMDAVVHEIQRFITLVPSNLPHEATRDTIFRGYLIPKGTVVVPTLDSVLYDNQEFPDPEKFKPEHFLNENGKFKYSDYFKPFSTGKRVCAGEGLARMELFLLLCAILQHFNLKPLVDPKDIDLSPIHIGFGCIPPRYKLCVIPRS

Cc1ncsc1CCCl [chlormethiazole]
IC50 [1]: 1.08 nM

COC(=O)[C@H](c1ccccc1Cl)N1CCc2sccc2C1 [clopidogrel]
IC50 [2]: 163 nM

COc1cc2c(cc1OC)CN(CCc1ccc(NC(=O)c3cccc4c(=O)c5cccc(OC)c5[nH]c34)cc1)CC2 [elacridar]
inhibition at 90 min, 3 μM [3]: 90.2 ± 1.42%
